Literature values in patent publication US8313936B2, “Nucleic acids and polypeptides involved in the production of cryptophycin” (priority 2006, dated 2012).

Details: assay not specified; U.S. Publication No. 20020065261

## COc1ccc(C[C@H]2NC(=O)/C=C/C[C@@H]([C@H](C)[C@H]3O[C@@H]3c3ccccc3)OC(=O)[C@H](CC(C)C)OC(=O)[C@H](C)CNC2=O)cc1Cl [Cryptophycin 1]
  activity relative to other cryptophycins: the most active natural compound
